According to patent US7148248B2, “Method of treating or inhibiting the development of brain inflammation and sepsis” (priority 2002, dated 2006):
Read-outs that look alike come from different tables or passages of the source.

How the values were obtained:
[1] = tested on: sepsis; conditions: cited from earlier work
[2] = cited from earlier work
[3] = tested on: ischemia (occlusion of both carotid arteries); test: rat ischemia model, reversible 30 minute occlusion of both carotid arteries followed by reperfusion; type: in vivo; conditions: 450 mg/kg i.p. 30 minutes before the occlusion
[4] = tested on: interleukin-6 induced leukocyte in CSF; test: interleukin-6 induced white blood cell infiltration into CSF (sepsis model); type: in vivo, dog; conditions: 300, 500, 1000 mg/kg p.o. 30 minutes before interleukin-6; for three days
Source text: TNF-α, interleukin-1 and interleukin-6 produced by activated macrophages at the site of the nociceptive stimuli play a particularly important role in mediating acute-phase inflammation as well as sepsis. In fact, proinflammatory cytokines administered to the outside of the blood brain barrier through the chronically in-dwelling intracerebroventricular catheter attached to an Ommaya reservoir increase white blood cell count (characterized by neutrophilic response and lymphocyte respectively) in the cerebrospinal fluid in dogs. The inflammation induced by interleukin-6, was longer lasting (starting from 2 hours, peak time are 10–24 hours lasting 24–72 hours) than that induced by interleukin-1β and TNF-α. In the present studies presented in the Examples hereinbelow, the inflammation caused by interleukin-6 was used as a sepsis model, measuring the amount of infiltrating white blood cells in the cerebrospinal fluid.

[5] = tested on: dextran-induced paw edema; test: dextran-induced rat paw edema; type: in vivo
Source text: Therefore, it was expected that such a mechanism might also come into play at the central nervous system level.

[6] = rats, cited from earlier work
[7] = cited from earlier work; remark: listed apart in the source
[8] = tested on: focal cerebral ischemia; conditions: cited from earlier work
[9] = tested on: arachidonic acid-induced brain inflammation; test: brain inflammation induced by arachidonic acid in the subarachnoid space (CSF volume and WBC count in CSF); type: in vivo, rat
Description: Male rats, approximately 350–400 g, were anesthetized with sodium pentobarbital at a dose of 50 mg/kg intraperitoneally (i.p.). Animals were then placed in a stereotaxic unit. Fur from the top of the head to neck was shaved. The study area was disinfected with 70% ethanol followed by a 10% providone-iodine solution. Skin and muscle over the cervical cord were dissected until cervical vertebrae were exposed. A hole was made using a 23G3/4 needle passing through the dura via the cisterna magna. One end of a 2–3 mm PE10 cannula (0.011 “I.D., 0.007” thick, 0.024” O.D., 6.5 cm long) was inserted into the subarachnoid space at the cervical cord so as to avoid damage to neuronal tissue (FIG. 3). The cannula was fixed with cyanoacrylic glue to the peripheral tissue. […] The cannula filled with CSF immediately after the cannulation. Air was infused to inject AA to the subarachnoid space. The muscles and skin were closed with surgical staples. The rat was then removed from the stereotaxic unit and placed on a heat pad and continuously monitored. […] If the effects of the anesthesia appeared to be wearing off, an additional 0.05–0.1 ml pentobarbital (50 mg/ml, i.p.) dose was administered. If at any time during the experiment, the animal appeared to be in pain or distress, the study was immediately stopped and the animal was euthanized. In the present study, the volume (μl) of cerebrospinal fluid (CSF) and white blood cell (WBC) counts in CSF was measured every thirty minutes for 11 hours from the same rat. One side of the cannula (PE10) was inserted into the subarachnoid space under pentobarbital anesthesia, avoiding neuronal damage (FIG. 3). If the brain tissue is damaged, the volume of CSF and WBC increases immediately without the administration of arachidonic acid. Since there are no WBC in the CSF in the normal rat, only rats that had no WBC in the CSF immediately after the cannulation were used. Another side of the cannula remained open and was used for the administration of nociceptive stimuli (arachidonic acid, LPS, dextran, etc.) and subsequently for collecting the CSF every thirty minutes during the experiment. The CSF volume was measured using a micropipette and WBC in the CSF were counted by means of a hemacytometer.

[10] = mice, cited from earlier work

C[C@]12CCC(=O)C=C1CC[C@@H]1[C@@H]2[C@@H](O)C[C@@]2(C)[C@H]1CC[C@]2(O)C(=O)CO [Hydrocortisone]
Effect ([1]; large dose (100 mg i.v. then 0.18/kg/hr)): none or worse
Effect ([1]; small dose (100 mg i.v./every 8 hours)): effective

O=C(Nc1cccc2c(=O)cc(-c3nnn[nH]3)oc12)c1ccc(OCCCCc2ccccc2)cc1 [pranlukast]
behavior, changes in body weight and food intake compared with control group ([2]; single 30-1000 mg/kg p.o. and repeated 30-1000 mg/kg/day p.o. for three and six months): normal
urine examination and histopathological examinations ([2]; single and repeated administration): normal
survival [3]: One of 4–5 rats survived for one week
inhibition of interleukin-6 induced leukocyte in CSF [4]: completely inhibited
inhibition of dextran-induced paw edema ([5]; 450 mg/kg, administered intraperitoneally): completely inhibited
inhibition of dextran-caused paw edema ([5]; 450 mg/kg, administered orally (FIG. 2)): completely inhibited
dose dependence of inhibition of dextran-induced paw edema ([5]; rat, in vivo): dose-dependent fashion
LD50 ([6]; p.o.): > 2000 mg/kg
LD50 ([6]; s.c.): > 2000 mg/kg
time the maximum blood concentration was maintained ([7]; 20 mg/kg p.o.): at least 5 hours
time to maximum blood concentration ([7]; 20 mg/kg p.o.): within one hour
pranlukast in blood 24 hours after administration ([7]; low doses (20 mg/kg p.o.)): no pranlukast was observed
effect on death of brain cells ([8]; 0.003-1.0 mg/kg i.p. 30 minutes before MCA occlusion and 2 hours after reperfusion, evaluated 24 hours after reperfusion): inhibited the death of brain cells
most effective dose ([8]; Zhang et al (2002)): 0.1 mg/kg
effect on brain inflammation caused by a large dose of arachidonic acid ([9]; arachidonic acid 6.25 μg/2.0 μl, pranlukast 450 mg/kg p.o.): not inhibited by pranlukast (450 mg/kg; p.o.) but was attenuated
time until white blood cell count returned to normal (=zero) after arachidonic acid ([9]; arachidonic acid 6.25 μg/2.0 μl, pranlukast 450 mg/kg p.o., 5 days without pranlukast): 36 h
inhibition of the increase of CSF volume ([9]; pranlukast 450 mg/kg i.p. thirty minutes before arachidonic acid 3.25 μg/2 μl, n=4): completely inhibited
inhibition of inflammation caused by arachidonic acid ([9]; pranlukast 450 mg/kg i.p., arachidonic acid 3.25 μg/2 μl): completely inhibits
LD50 ([10]; p.o.): > 2000 mg/kg
LD50 ([10]; s.c.): > 2000 mg/kg
